A short description of data set [1]: safety and adverse effects in the 12-week trial in youth with autistic disorder. The format is in vivo, human. The note with it: nine youth with autistic disorder receiving acamprosate. As for the experimental part: A 12-week single-blind, placebo-controlled trial of the effect of acamprosate in the treatment of 12 youths with autistic disorder aged 5 to 17 years was carried out. In order to pilot test use of acamprosate in youth with autism targeting core social impairment, was conducted. All subjects and their family members were blinded to treatment status. All subjects participated in a 2 week placebo-lead-in phase prior to 10 weeks of treatment with acamprosate. For this project, enteric coated commercially available 333 mg acamprosate pills were over-encapsulated and identical matching placebo manufactured for the project. Placebo-responders, defined by a Clinical Global Impressions Improvement scale (CGI-I) score of 1 “very much improved” or 2 “much improved” (ratings anchored to core social deficits) at week 2 were asked to exit the study. During active treatment with acamprosate, dosing was increased in 333 mg increments per week over the first six weeks of active treatment to a maximum dose of 1,332 mg/day (weight<5 60 kg) or 1,998 mg/day (weight>60 kg). During the final four weeks of active drug treatment, subjects were maintained on a stable highest tolerated (optimal) dose. The primary outcome measure was the clinician-rated CGI-I anchored to symptoms of social impairment. […]

The test system of another data set is adult males with FXS. The note with it: of 3 adult males with FXS, cited from earlier work.

“Also recorded” adds a separate entry of the source.

`CC(=O)NCCCS(=O)(=O)O.[Ca]` [acamprosate, Calcium Acetylhomotaurine]: in data set [1], the overall tolerability entry was “well tolerated with no adverse effects leading to drug discontinuation or laboratory/vital sign abnormalities noted; also recorded: well tolerated with no adverse effects leading to drug discontinuation and no vital sign or safety laboratory changes noted”. In addition, the “subjects with non-treatment limiting gastrointestinal distress (emesis and/or nausea)” value with adult males with FXS is on record as “Two subjects”. In addition, in the data set with adult males with FXS (mean dose 1,221 mg/day, mean duration 21.3 weeks), the “subjects with significant positive clinical response as measured by the CGI-I” value was 3.

Source of the values: patent publication US9770423B2, “Modulation sAPP, sAAPα and BDNF levels in individuals diagnosed with FXS and ASD” (Indiana University Research and Technology Corp., priority 2012, dated 2017).
